Results taken from patent publication US7910135B2, “Hydrogel wound dressing and biomaterials formed in situ and their uses” (ULURU Inc., priority 2006, dated 2011).

How the values were obtained:
[1] = Release of lidocaine or erythromycin from nanoparticle aggregates in PBS; format: physicochemical; conditions: dry blended with pHEMA or HEMA/GMA copolymer powder, aggregate formed in PBS
Excerpt: Poly-HEMA nanoparticle powder and HEMA/GMA copolymer nanoparticle powders were dry blended with lidocaine or erythromycin powder and upon exposure to PBS, aggregates formed trapping the active between the particles comprising the aggregate.

[2] = test system: metalloproteases; conditions: cited from earlier work

Structure (SMILES)	Change of release rate as the glycerol methacrylate comonomer is increased [1]	Effective concentration [2] [mmol/L]
CCN(CC)CC(=O)Nc1c(C)cccc1C [lidocaine]	released at a slower rate	–
CC[C@H]1OC(=O)[C@H](C)[C@@H](O[C@H]2C[C@@](C)(OC)[C@@H](O)[C@H](C)O2)[C@H](C)[C@@H](O[C@@H]2O[C@H](C)C[C@H](N(C)C)[C@H]2O)[C@](C)(O)C[C@@H](C)C(=O)[C@H](C)[C@@H](O)[C@]1(C)O [erythromycin]	increases	–
c1cnc2c(c1)ccc1cccnc12 [1,10 phenanthroline]	–	0.1
